The source made the active and inactive calls.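 Rule for the calls: active = compounds giving half or more protection of infected cells from virus-caused growth loss, again on retest; inactive = the rest.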
Tested on: CEM cells HIV-1 protection, formazan growth assay
Experiment: NCI AIDS Antiviral Assay
Conditions: for IC50: measured here: growth of uninfected CEM cells
Summary of the method: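 Soluble formazan readout of cell growth; CEM cells ± HIV-1; 5 drug concs. ≥50% protection → retest; ≥50% again = moderately active; reproducible 100% = confirmed active.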

Row | Compound | EC50 [µM] | IC50 [µM] | outcome
1 | CCOC(=O)C(C)[P+](c1ccccc1)(c1ccccc1)c1ccccc1 (configuration not stated) | > 200 | 3.09 | –
2 | Cc1cc(NS(=O)(=O)c2ccc(NC(=O)c3ccc(Cl)c4c(Nc5ccc(S(=O)(=O)N=C(N)N)cc5)c5ccccc5nc34)cc2)no1 | > 51.3 | > 51.3 | –
3 | CC(C)N=C(NC#N)NS(=O)(=O)c1cnccc1Nc1ccc(Cl)cc1 | > 200 | > 200 | –
4 | COc1ccc(NC(=O)C2=C(SC)C(C#N)C(=O)N=C2N)cc1 (configuration not stated) | > 200 | 44.7 | –
5 | CC12CC3CC(C)(C1)CC(N=[N+]=[N-])(C3)C2 | > 91.2 | > 91.2 | –
6 | CCC/C(Cl)=N\OC(=O)Nc1ccc(F)c([N+](=O)[O-])c1 | > 200 | 9.12 | –
7 | COC(=O)c1cc2c(o1)Sc1ccccc1NC2=O | > 200 | > 200 | –
8 | CCN(CC)CCOc1ccccc1/C=C/c1noc2ccccc12 | > 200 | 29.5 | –
9 | O=C(N/N=C(/c1nc2ccc(Cl)cc2[nH]c1=O)C(O)c1ccc(Cl)cc1Cl)c1ccncc1 (configuration not stated) | > 501 | 162 | –
10 | C#CCN(N=O)C(=O)NCCCCC(NC(=O)OCc1ccccc1)C(=O)OCc1ccccc1 (configuration not stated) | > 28.2 | > 28.2 | –
11 | O=C(O)CCCC(=O)CCCC(=O)O | – | – | inactive
12 | CC1=NN(C(=O)c2ccccc2O)C(=O)/C1=C/c1ccc([N+](=O)[O-])cc1 | > 53.7 | 0.0912 | –
13 | Cc1nc2ccccc2c(=O)n1NC(=O)c1ccccn1 | > 200 | > 200 | –
14 | O=C1c2ccccc2-c2nc(-c3ccccc3)cc3c2c1nc1ccccc13 | > 200 | 30.2 | –
15 | Cc1c2ccncc2cc2c1sc1ccncc12 | > 39.8 | 0.589 | –
16 | C=CCN=C([S-])Nc1cccc(C(=O)O)c1.[Au+].[Na+] | – | – | inactive
17 | c1ccc2c(c1)Sc1ccccc1C2=C1c2ccccc2Sc2ccccc21 | > 200 | 10.7 | –

Row | Compound | EC50 [µM] | IC50 [µM] | outcome
18 | CC1CN1c1c(C(=O)/C=C/c2ccccc2)c(-c2ccccc2)nn(C)c1=O (configuration not stated) | > 67.6 | 12.6 | –
19 | c1ccc(CN2COc3c(c4c(c5ccccc35)OCN(Cc3ccccc3)C4)C2)cc1 | > 61.7 | > 61.7 | –
20 | N=C(N)c1ccc(N=Nc2cc(N=Nc3ccc(C(=N)N)cc3)c(O)cc2O)cc1 | 85.1 | > 100 | –
21 | CCc1cccc(C(C)C)c1C1C(=O)C(=O)N(c2nc3ccccc3s2)C(=O)C1=O | – | – | inactive
22 | C[C@]12OC[C@H](c3ccccc3)N1C(=O)C1[C@H]2CC12SCCS2 (some centres not stated) | > 200 | 178 | –
23 | Cn1c2ccccc2c2nn3cnnc3nc21 | > 32.4 | > 32.4 | –
24 | Cc1ccc2nnn3c(=N)nc(N)nc3c2c1 | > 79.4 | > 79.4 | –
25 | CN(C)CCNc1ccc([N+](=O)[O-])c2nc3ccccc3c(N)c12 | > 200 | 1.95 | –
26 | COc1ccccc1/C=C1\SC(=S)NC1=O | > 200 | 107 | –
27 | Cc1cc(NS(=O)(=O)c2ccc(N=c3c4ccccc4n(Cc4ccccc4)c4ccccc34)cc2)no1 | – | – | inactive
28 | O=C1OCC(Cl)O1 (configuration not stated) | > 200 | > 200 | –
29 | O=C(NCCOC(=O)CCCCCCCCC(=O)OCCNC(=O)NC(=O)c1cn(Cc2ccccc2)c(=O)[nH]c1=O)NC(=O)c1cn(Cc2ccccc2)c(=O)[nH]c1=O | > 43.7 | > 43.7 | –
30 | CC12CC(C/C1=N/O)C(C)(C)C2 (configuration not stated) | > 1480 | > 1480 | –
31 | COC(=O)c1ccc(NCC2=CC(=O)c3ccccc3C2=O)cc1 | > 200 | 2.09 | –
32 | Cn1c2ccccc2c2cc(N3CCCC3)c3c(c21)C(=O)N(c1ccccc1)C3=O | > 200 | > 200 | –
33 | CC(C)(C)c1n[nH]c(C(C)(C)C)c1N=O | > 200 | 97.7 | –
